Data as given in article PMC11474975, “Enzyme Dynamics Determine the Potency and Selectivity of Inhibitors Targeting Disease-Transmitting Mosquitoes” (ACS Infectious Diseases, 2024).
pIC50: −log10 of the molar value. Like-named read-outs stand apart in the source and are kept apart here.

Experiments:
[1] = tested on: AChE1 from Anopheles gambiae (AgAChE1); test: AgAChE1 inhibition, IC50 (Ellman assay); assay type: biochemical; conditions: class from experimental IC50
[2] = tested on: AChE1 from Anopheles gambiae (AgAChE1); conditions: taken from previous publications; cited from earlier work
hAChE [3] = test: hAChE inhibition, IC50; assay type: biochemical, Homo sapiens
hAChE [4] = conditions: taken from previous publications; cited from earlier work
mAChE [5] = biological target: T1, mAChE (Mus musculus, UniProt P21836); test: mAChE inhibition, IC50 (Ellman assay); conditions: for S.R. (selectivity ratio) mAChE vs AgAChE1: IC50 mAChE / IC50 AgAChE1; for mAChE inhibitor class (Strong/Weak): class from experimental IC50
T1 sequence (P21836 32-614): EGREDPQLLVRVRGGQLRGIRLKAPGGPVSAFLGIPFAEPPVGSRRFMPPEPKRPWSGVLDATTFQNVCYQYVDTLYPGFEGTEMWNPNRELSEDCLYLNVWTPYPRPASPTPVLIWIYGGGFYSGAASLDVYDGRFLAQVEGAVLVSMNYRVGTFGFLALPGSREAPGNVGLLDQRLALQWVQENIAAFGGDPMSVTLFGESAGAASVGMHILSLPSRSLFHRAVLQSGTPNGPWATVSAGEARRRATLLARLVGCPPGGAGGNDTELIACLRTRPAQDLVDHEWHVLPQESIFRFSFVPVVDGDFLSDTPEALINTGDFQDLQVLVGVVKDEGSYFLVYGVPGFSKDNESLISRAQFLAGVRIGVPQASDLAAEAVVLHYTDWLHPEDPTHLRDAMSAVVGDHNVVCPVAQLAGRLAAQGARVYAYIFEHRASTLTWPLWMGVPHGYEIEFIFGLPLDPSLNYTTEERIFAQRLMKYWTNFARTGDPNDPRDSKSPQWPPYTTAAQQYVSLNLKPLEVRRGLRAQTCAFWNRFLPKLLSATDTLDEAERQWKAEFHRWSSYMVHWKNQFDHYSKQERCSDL
Experimental: Dilution series of eight concentrations were prepared (0.001–1000 and 0.1–1000 μM, respectively). Enzymatic activity was measured using the Ellman assay (adapted to a 96-well format) with secreted nonpurified protein in growth medium. A QIAgility robotic benchtop instrument (Qiagen) was used for automatic liquid handling when setting up assay plates. The assay was then performed at 30 °C in a final volume of 200 mL 0.1 M phosphate buffer (pH 7.4) containing 0.2 mM 5,5′-thiobis(2-nitrobenzoic acid) and 1 mM acetylcholine iodide. Changes in the wells’ absorbance at 412 nm were recorded over 60 s using a FlexStation 3 Multi-Mode Microplate Reader (Molecular Devices) to monitor the enzymatic reaction. Eight positive controls of uninhibited enzyme were assumed to represent 100% activity and used to determine the average slope. […] Nonlinear regression (curve fitting) in GraphPad Prism[54] was used to calculate IC50 values. The log[inhibitor] vs response variable slope equation was fitted using three parameters. Three independent replicates were used for the IC50 determination.

mAChE [6] = biological target: T1, mAChE; parameters: made in house; method as in PMID 30339371, PMID 27598521, PMID 22140425; conditions: taken from previous publications; cited from earlier work

Structure (SMILES)	AgAChE1 inhibitor class (Strong/Weak) [1]	IC50 [2]	S.R. (selectivity ratio) hAChE vs AgAChE1 (hAChE [3])	IC50 (hAChE [4])	pIC50 (mAChE [5])	S.R. (selectivity ratio) mAChE vs AgAChE1 (mAChE [5])	mAChE inhibitor class (Strong/Weak) (mAChE [5])	IC50 (mAChE [6])
O=C(COc1ccc(Cl)cc1Cl)Nc1ccc(CN2CCCCC2)cc1 [AL137]	Strong (strong and weak inhibitors of AgAChE1 from both classes (IC50 < 1 μM and IC50 > 5 μM, respectively)	0.26 µM	–	–	–	–	–	–
COc1ccc(NC(=S)NCCN2CCC(C)CC2)cc1Cl [AL201]	Strong (strong and weak inhibitors of AgAChE1 from both classes (IC50 < 1 μM and IC50 > 5 μM, respectively)	0.96 µM	13	12 µM	4.59	27	Weak (strong and weak inhibitors of AgAChE1 from both classes (IC50 < 1 μM and IC50 > 5 μM, respectively)	–
COc1ccccc1NC(=S)NCCN(C)C [AL237]	Weak (strong and weak inhibitors of AgAChE1 from both classes (IC50 < 1 μM and IC50 > 5 μM, respectively)	7.1 µM	17	120 µM	3.66	31	Weak (strong and weak inhibitors of AgAChE1 from both classes (IC50 < 1 μM and IC50 > 5 μM, respectively)	–
O=C(COc1ccc(-c2ccccc2)cc1)NCCCN1CCCCC1 [AL264]	Weak (strong and weak inhibitors of AgAChE1 from both classes (IC50 < 1 μM and IC50 > 5 μM, respectively)	10 µM	6	57 µM	–	6	Weak (strong and weak inhibitors of AgAChE1 from both classes (IC50 < 1 μM and IC50 > 5 μM, respectively)	61 µM
CCN1CCN(C2CCN(C(=O)COc3ccc(-c4ccc(OC)cc4)cc3)CC2)CC1 [AL284]	Strong (strong and weak inhibitors of AgAChE1 from both classes (IC50 < 1 μM and IC50 > 5 μM, respectively)	0.4 µM	45	18 µM	–	73	Weak (strong and weak inhibitors of AgAChE1 from both classes (IC50 < 1 μM and IC50 > 5 μM, respectively)	29 µM
